From ChEMBL document CHEMBL1151559, “Pyridine and piperidine derivatives as inhibitors of dihydrodipicolinic acid synthase, a key enzyme in the diaminopimelate pathway to l-lysine” (Bioorg Med Chem Lett, 1994)
“And” between values parts separate entries of the source, which are not always exact repeats. Identical values can stand only once.

target: T1, Dihydrodipicolinate synthase (Streptomyces coelicolor (strain ATCC BAA-471 / A3(2) / M145), UniProt Q93RY0); test: In vitro inhibition of dihydrodipicolinic acid synthase.; format: functional, Escherichia coli
T1 sequence (Q93RY0 whole entry): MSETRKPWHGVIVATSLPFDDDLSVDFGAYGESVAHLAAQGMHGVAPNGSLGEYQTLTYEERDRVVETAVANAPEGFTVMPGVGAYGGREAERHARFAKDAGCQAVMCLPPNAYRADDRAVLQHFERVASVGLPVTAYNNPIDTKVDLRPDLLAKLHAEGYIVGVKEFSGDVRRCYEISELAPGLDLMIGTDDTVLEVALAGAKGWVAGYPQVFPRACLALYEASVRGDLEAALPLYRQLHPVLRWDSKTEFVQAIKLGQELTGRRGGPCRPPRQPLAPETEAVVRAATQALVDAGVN

Compared with `COC(=O)[C@@H]1CCC[C@H](C(=O)OC)N1`, `COC(=O)[C@@H]1CCC[C@@H](C(=O)OC)N1` is 7.4-fold higher in IC50: 700 µM for the first, 5200 µM for the second. The first is the more potent here.

Going from `O=C(O)c1cccc(C(=O)O)[n+]1[O-]` to `O=C(O)c1cccc(C(=O)O)n1` [DIPICOLINIC ACID], the IC50 rises from 200 µM to 400 µM (2-fold). The first is the more potent here.

First: O=NN1CCCCC1C(=O)O (stereo not drawn)
Second: O=NN1CCCC1C(=O)O (stereo not drawn)
The IC50 of the first is 2.1-fold lower: 3500 µM for the first, 7500 µM for the second.

`c1cc(-c2nnn[nH]2)nc(-c2nnn[nH]2)c1` and `N#Cc1cccc(C#N)n1` are within 1.5-fold of each other in IC50: 250 µM for the first, 300 µM for the second.

Compared with `COC(=O)c1cccc(C(=O)OC)n1`, `COC(=N)c1cccc(C(=N)OC)n1` is 3.5-fold lower in IC50: 700 µM for the first, 200 µM for the second.

Going from `O=NN1[C@@H](C(=O)O)CCC[C@H]1C(=O)O` to `COC(=O)[C@@H]1CCC[C@@H](C(=O)OC)N1C`, the IC50 falls from 2300 µM to 700 µM (3.3-fold). The second is the more potent here.

`N#C[C@@H]1CCC[C@H](C#N)N1` and `N=C[C@@H]1CCC[C@H](C=N)N1` are within 1.5-fold of each other in IC50: 7400 µM for the first, 7200 µM for the second.

`O=C(O)c1ccccn1` [2-PICOLINIC ACID] and `O=C(O)c1cccc[n+]1[O-]` are within 1.5-fold of each other in IC50: 1000 µM for the first, 800 µM for the second.

With `COC(=O)[C@H]1CCC[C@@H](C(=O)OC)N1N=O` the IC50 was 6200 µM and 700 µM.

target: T1, Dihydrodipicolinate synthase (Streptomyces coelicolor (strain ATCC BAA-471 / A3(2) / M145), UniProt Q93RY0); test: Inhibitory activity against dihydrodipicolinic acid synthase; format: functional, Escherichia coli

For `N#C[C@@H]1CCC[C@@H](C#N)N1`, the Ki was 6300 µM.
